The values that follow come from patent publication US7022675B2, “Wound healing compositions” (University of Southern California, priority 1997, dated 2006).

In assay [1] the test system is blood pressure. The settings on record: cited from earlier work.
The next assay relates to water intake. The settings on record: injected into the anterior diencephalon in the rat, Fitzsimons 1971; cited from earlier work.
A further assay deals with rat carotid artery. The settings on record: cited from earlier work; for neointimal formation: similar model, Janiak et al. 1992, CGP 42112 infused perivascularly for 14 days, losartan at low doses; for reduction of intimal hyperplasia / intimal area: treatment of rats, Pratt et al. 1992.
The next assay concerns wound tissue. Particulars: application to wound tissue; cited from earlier work.
Assay [2] has as its system full thickness dermal wounds. Nature of the assay: in vivo wound healing assay, full thickness dermal wounds in rats. Also noted: species or system Sprague Dawley rats. The settings on record: 100 μg/wound in 10% carboxymethyl cellulose, daily for first five days; measured days 2, 4, 7 and 9. As for the experimental part:
Analogs of angiotensin II and analogs of angiotensin II fragments having the structures disclosed herein were prepared using an automated peptide synthesizer and methods familiar to those having ordinary skill in the art. Each of the analogs was tested for its ability to accelerate wound healing according to the method described below. Results of procedures were used to determine the extent of wound closure at days 2, 4, 7 and 9, measured as a percentage of a vehicle-treated control wound. Since all of the analogs were not tested during the same experimental procedure, AII was included as a positive control for each group of peptides tested.
Female Sprague Dawley rats, 12 weeks old, were obtained from Simonsen Laboratories, Gilroy, Calif. On the day of surgery, the rats received intramuscular ketamine/rompum anesthesia prior to preparation for surgery. […] At days 2, 4, 7 and 9, the area of the skin wounds was measured under methoxyflurane anesthesia (commercially available as Metofane from Pittman-Moore, Mundelein, Ill.). The area of the wound was determined by (1) tracing the wound shape onto graph paper (1×1 mm squares); (2) cutting out the shape; (3) weighing the paper and comparing the weight with a 1.5×1.5 cm paper cutout; and (4) counting the number of squares. In addition, on days 2 and 4 the area of granulation tissue was similarly determined.

For assay [3], the system named is blood pressure. Particulars: intracerebroventricular infusion in the rat, concentrations 1,000 times higher than that of AII that increased blood pressure, Wright et al. 1989; cited from earlier work.

As to “AII(1-7): fragment of AII (DRVYIHP; Angiotensin 2; UniProt P01019 25-31, looked up, fragment)”, the “amount needed for a comparable pressor response, relative to AII” value in the assay on blood pressure [1] (Benter et al. 1993) was “about 10,000 times more AII(1-7) than AII”. Moreover, the “dose needed for effects on blood pressure (pressor), relative to AII” value in the assay on blood pressure [1] (depending upon the model tested and route of administration) is given as 10,000-100,000 times the dose of AII. For the same molecule, the “effect on water intake” value in the assay with water intake is “completely inactive”. Regarding `CCCCc1nc(Cl)c(CO)n1Cc1ccc(-c2ccccc2-c2nn[nH]n2)cc1` [losartan], in the assay with rat carotid artery, the neointimal formation result is recorded as “ineffective” and the “reduction of intimal hyperplasia / intimal area” value is listed as 95%. Consider “Asp-Arg-Val-Tyr-Ile-His-Pro-Phe (DRVYIHPF) [angiotensin II, positive control]”, for which the “rate of wound healing” value with wound tissue is recorded as “significantly increases”. In the case of Tyr-Ile-His-Pro-Phe (YIHPF) [AII(4-8)], the “wound closure relative to vehicle-treated control wounds” value in assay [2] is given as “not to be effective”. For the same molecule, the “effect on blood pressure” value with blood pressure [3] is “minimal effect”. Moreover, the “effect on water intake” value in the assay with water intake was “only a slight effect”. “AII(1-4): AII fragment (DRVY; Angiotensin 2; UniProt P01019 25-28, looked up, fragment)”: the “effect on water intake” value in the assay with water intake is given as “only a slight effect”.

With CGP 42112, the neointimal formation result in the assay on rat carotid artery is given as “prevented neointimal formation”.

As to `Cc1cc(Cn2cnc3c2C[C@@H](C(=O)O)N(C(=O)C(c2ccccc2)c2ccccc2)C3)ccc1N(C)C` [PD 123319], in the assay on rat carotid artery, the “reduction of intimal hyperplasia / intimal area” value is 73%.

For “AII(5-8): AII fragment (IHPF; Angiotensin 2; UniProt P01019 29-32, looked up, fragment)”, the “effect on blood pressure” value in the assay on blood pressure [3] is “minimal effect”. Further, the “effect on water intake” value in the assay with water intake was “only a slight effect”. For His-Pro-Phe [AII(6-8)], in assay [2], the “wound closure relative to vehicle-treated control wounds” value is recorded as “not to be effective”.
